According to patent US5340816A, “Hydroxymethyl(methylenecyclopentyl) purines and pyrimidines” (E. R. Squibb & Sons, Inc., priority 1993, dated 1994):

Key:
VZV = VZV antiviral plaque reduction assay in WI-38 cell culture monolayers; format: cell-based, varicella zoster virus, strain ELLEN; settings: Human alphaherpesvirus 3, WI-38 cells, 5-7 days at 37° C., read-out: ID50 for VZV
Protocol: (§1) Assays were performed in cell culture systems to determine the concentrations of compounds that are effective in preventing several kinds of viral infections.
(§2) HSV-1 (herpes simplex virus type 1, strain Schooler), HSV-2 (herpes simplex virus type 2, strain 186), VZV (varicella zoster virus, strain ELLEN), HCMV (human cytomegalovirus, strain AD 169 HIV (human immununodeficiency virus, strain HTLV-IIIB).
(§3) HSV-1, HSV-2, HCMV and VZV antiviral assays: Virus was adsorbed to WI-38 cell culture monolayers in 6 well culture plates (Costar, Cambridge, Mass.) for 1 hour prior to addition of maintenance medium containing duplicate dilutions of the test compound. Inhibition of plaque development was evaluated on fixed and stained monolayers after 4 days incubation at 37° C. for HSV-1 and HSV-2, and after 5-7 days incubation at 37° C. for HCMV and VZV. ID50 values were determined from the drug concentration which conferred at least a 50% plaque reduction compared to virus controls.

HCMV = HCMV antiviral plaque reduction assay in WI-38 cell culture monolayers; format: cell-based, human cytomegalovirus, strain AD 169; settings: Human betaherpesvirus 5, WI-38 cells, 5-7 days at 37° C., read-out: ID50 for HCMV
Protocol: as §1, §2, §3

HSV-1 = HSV-1 antiviral plaque reduction assay in WI-38 cell culture monolayers; format: cell-based, herpes simplex virus type 1, strain Schooler; settings: Human alphaherpesvirus 1, 96 h, WI-38 cells, 4 days at 37° C., read-out: ID50 for HSV-1
Protocol: as §1, §2, §3

HSV-2 = HSV-2 antiviral plaque reduction assay in WI-38 cell culture monolayers; format: cell-based, herpes simplex virus type 2, strain 186; settings: Human alphaherpesvirus 2, 96 h, WI-38 cells, 4 days at 37° C., read-out: ID50 for HSV-2
Protocol: as §1, §2, §3

[1] = Reduction of cell viability in uninfected MT-2 cells (XTT-PMS); format: cell-based; settings: human, 7 days
Protocol: HIV antiviral assay: Suspensions of MT-2 cells (S. Harada, et al., Science, 229, 563 (1985)) were infected at a multiplicity of infection of 0.03 TLID50 /cell with HIV (strain HTLV-III B). After adsorption for 1-2 hours at 37° C., infected cells were diluted in growth medium (RPMI 1640 containing the antibiotics penicillin plus streptomycin and 10% fetal calf serum) to give a final cell concentration of 1×10^4 viable cells/culture well in the presence of serial dilutions of the test compound, starting at 100 μg/ml. Triplicate samples at each drug concentration were used. Cultures of uninfected MT-2 cells were similarly prepared and incubated with serial dilutions of test compound in duplicate. All assays were performed in 96 well disposable cell culture plates. Untreated (infected and uninfected) cells were included as controls. […] Following incubation, viable cell numbers were counted in each well using a colorimetric assay following incubation of cells with XTT-PMS solution (XTT tetrazolium reagent plus phenazine methosulfate PMS).
(§4) Percent reduction of viral cytopathic effect (CPE) in drug treated compared to untreated virus infected cells, and percent reduction of cell viability in drug treated uninfected cells compared to untreated controls were calculated and plotted versus the drug concentrations tested. […]

HIV = HIV antiviral assay (reduction of viral cytopathic effect in MT-2 cells, XTT-PMS); format: cell-based, human immununodeficiency virus, strain HTLV-IIIB; settings: Human immunodeficiency virus 1, MT2, 168 h, 7 days, read-out: reduction in viral CPE (HIV)
Protocol: as §1, §2
HIV antiviral assay: Suspensions of MT-2 cells (S. Harada, et al., Science, 229, 563 (1985)) were infected at a multiplicity of infection of 0.03 TLID50 /cell with HIV (strain HTLV-III B). […] Following incubation, viable cell numbers were counted in each well using a colorimetric assay following incubation of cells with XTT-PMS solution (XTT tetrazolium reagent plus phenazine methosulfate PMS).
as §4

Compound | IC50 (VZV) | IC50 (HCMV) | IC50 (HSV-1) | IC50 (HSV-2) | cytotoxicity at 168 h, 12 µM ([1]; at 12 μM) | inhibition at 12 µM (HIV; at 12 μM) | cytotoxicity at 168 h, 27 µM ([1]; at 27 μM) | inhibition at 27 µM (HIV; at 27 μM)
C=C1[C@H](CO)[C@@H](O)C[C@@H]1n1cc(/C=C/Br)c(=O)[nH]c1=O [[1S-[1α(E),3α,4β)]-5-(2-Bromoethenyl)-1-[4-hydroxy-3-(hydroxymethyl)-2-methylenecyclopentyl]-2,4(1H,3H)-pyrimidinedione] | 0.3 to 0.6 µM | 291 µM | 0.6 to 1.5 µM | 29 to 73 µM | – | – | – | –
C=C1[C@H](CO)[C@@H](O)C[C@@H]1n1cc(I)c(=O)[nH]c1=O [[1S-(1α,3α,4β)]-1-[4-Hydroxy-3-(hydroxymethyl)-2-methylenecyclopentyl]-5-iodo-2,4(1H,3H)pyrimidinedione] | 68 to 137 µM | 68 to 137 µM | 6 to 14 µM | > 275 µM | – | – | – | –
C=C1[C@H](CO)[C@@H](O)C[C@@H]1n1cc(/C=C/Cl)c(=O)[nH]c1=O [[1S-[1α(E),3α,4β]]-5-(2-Chloroethenyl)-1-[4-hydroxy-3-(hydroxymethyl)-2-methylenecyclopentyl]-2,4(1H,3H)-pyrimidinedione] | 1.7 µM | – | 0.07 to 0.16 µM | 2 µM | – | – | – | –
C=C1[C@H](CO)[C@@H](O)C[C@@H]1n1cc(C)c(=O)[nH]c1=O [[1S-(1α,3α,4β)]-1-[4-Hydroxy-3-(hydroxymethyl)-2-methylenecyclopentyl]-5-methyl-2,4(1H,3H)-pyrimidinedione] | 40 to 400 µM | ≥ 396 µM | 8 to 20 µM | 40 to 100 µM | – | – | – | –
C=C1[C@H](CO)[C@@H](O)C[C@@H]1n1cc(/C=C/I)c(=O)[nH]c1=O | 0.05 to 0.14 µM | > 260 µM | 0.5 to 1.3 µM | 13 to 26 µM | – | – | – | –
C=C1[C@H](CO)[C@@H](O)C[C@@H]1n1cnc2c(=O)[nH]c(N)nc21 [[1S-(1α,3α,4β)]-2-Amino-1,9-dihydro-9-[4-hydroxy-3-(hydroxymethyl)-2-methylenecyclopentyl]-6H-purin-6-one] | 18 to 36 µM | 90 µM | 3.6 µM | 7.2 to 18 µM | 4% | 41% | – | –
C=C1[C@H](CO)[C@@H](O)C[C@@H]1n1ccc(N)nc1=O | 4.2 to 42 µM | 2.1 to 4.2 µM | 4.2 to 8.4 µM | 2.1 to 4.2 µM | – | – | – | –
C=C1[C@H](CO)[C@@H](O)C[C@@H]1n1cnc2c(N)ncnc21 [[1R-(1α,3α,5β)]-3-(6-Amino-9H-purin-9-yl)-5-hydroxy-2-methylenecyclopentanemethanol] | > 96 µM | > 38 µM | 191 to 383 µM | 191 to 383 µM | – | – | 23% | 50%
